US10596173B2, “Combination therapy of an HBV capsid assembly inhibitor and an interferon” (Hoffmann-La Roche Inc., priority 2015, dated 2020)
pEC50: −log10 of the molar value. Where “and” joins values, the source holds several entries; their conditions need not be identical. Identical values can stand only once.

Legend:
[1] = system: HBV; test: Combination study with Roferon in HBV infected HepaRG cells: HBV DNA in supernatant by qPCR, CalcuSyn and isobologram analysis; assay type: cell-based, HBV (genotype D); conditions: for Overall CI: average of CI at 50%, 75% and 90%; for pEC50: Hepatitis B virus, HepaRG
Method: HepG2.2.15 cells were cultured in DMEM+Glutamax I medium (Gibco, #21885) supplemented with 10% FBS, 1% Pen/Strep (Gibco, #15140) and G-418 ([…]) and used for production of infectious HBV (genotype D). 90% confluent cells from three T175 flasks were trypsinized and transferred into one collagen coated hyperflask (550 mL). Once the cells were confluent, medium was changed to DMEM+Glutamax I medium with 1% DMSO and 2.5% FBS. Once the cells were slightly over confluent, medium was changed to DMEM/F12+Glutamax I medium (Gibco, #31331) supplemented with MEM non-essential aminoacids (6 mL, Gibco, #11140), P/S (6 mL), sodium pyruvate (6 mL), DMSO (9 mL) and FBS (10 mL) (all per 500 mL medium). Medium was changed every 3 days and supernatants were harvested for 2 weeks. Virus was concentrated from supernatants by PEG precipitation and the titer (genome equivalent (GE)/mL) was determined by qPCR. Briefly, supernatants were mixed with 40% PEG solution at a ratio of 4:1, incubated on a shaker at 4° C. overnight and then centrifuged using 50 mL falcon tubes at 4° C. for one hour at 3724 g (RCF). The supernatant was discarded and the centrifugation step was repeated with new supernatant reusing the tubes until all PEG-precipitated supernatant was processed. The pellets were re-suspended in William's E Medium (Gibco, #22551) at a concentration of 10^7-10^9 genome equivalents (GE) per ml and frozen at −80° C. DNA copy number calculation was based on a standard curve generated from HBV plasmid dilutions with known concentrations.
HepaRG cells (Biopredic International, Saint-Gregoire, France) were cultured in working growth medium (500 mL Willams E Medium with 50 mL HepaRG Growth supplement from Biopredic, 5 mL Glutamax-I (Gibco, #35050) and 5 mL Pen/Strep) for 2 weeks. After 2 weeks, medium was changed to differentiation medium containing 1.8% DMSO (500 mL Willams E Medium with 50 mL HepaRG Growth supplement from Biopredic, 5 mL Pen/Strep, 5 mL Glutamax-I and 9 mL DMSO). Medium was changed twice a week up to 2 weeks. Once fully differentiated, cells were trypsinized and seeded into collagenated 96-well plates (50,000 cells/well in 100 μL) or 24-well plates (300,000 cells/well in 500 μL) in differentiation medium. Cells were cultured at least 5 days in the plates before they were infected with HBV.
The combination experimental results were analyzed using the model described by Craig et al. (Craig J, Duncan I, Whittaker L and Roberts N. (1990). Antiviral synergy between inhibitors of HIV proteinase and reverse transcriptase. Antiviral Chem. Chemother. 4:161-166). EC50 values were obtained for compounds used alone and in combination with others. To relate these two values and describe the degree of synergy/additivity/antagonism between them, the Fractional Inhibitory Concentration (FIC) was first calculated and used to generate isobolograms. Briefly, the FIC is the ratio of the EC50 of the drug in combination to the EC50 of the drug on its own: FIC=ratio[EC50combination:EC50alone]
The Combination Index (CI), obtained by adding the FICs of the two compounds, was then used to describe the effect between compounds used in the combinations. A CI<1 means synergism, a CI=1 means additivity and a CI>1 means antagonism.
Each experiment was performed in at least triplicate and performed independently 3 times. Mean percent inhibition of HBV replication based on DNA copy number was calculated from all experiments and analyzed using the Calcusyn software (CalcuSyn Version 2.11, Biosoft, Cambridge, UK) based on the Loewe additivity model described by Chou and Talalay (Chou T C (2006). Theoretical basis, experimental design, and computerized simulation of synergism and antagonism in drug combination studies. Pharmacol. Rev., 58:621-681). For the CalcuSyn evaluation, data from three diagonal lanes with a constant concentration ratio for the drug combinations of each lane from the checkerboard plate were used (marked in bold in Table 2). […]

[2] = system: HBV infected HepaRG cells; test: CellTiter-Glo cell viability assay of HBV infected and treated HepaRG cells; assay type: cell-based; conditions: individual compound at maximum concentration, day 11 post infection
Method: Cell viability of the HBV infected and treated HepaRG cells was determined at day 11 post infection using the CellTiter-Glo® Luminescent Cell Viability Assay (Promega, Cat. No. G7572). 100 μL of CTG reagent were added to each well of the cells, incubated for 10 min and 80 μL of each well were transferred to a new white 96 well plate. Luminescence (0.2 sec) was measured using an Envision reader (PerkinElmer).

[3] = system: HBV; conditions: HBV infected transgenic mouse model or humanized mouse models; cited from earlier work
[4] = CalcuSyn, HBV DNA, molar ratio 1:0.3
[5] = CalcuSyn, HBV DNA, molar ratio 1:1
[6] = CalcuSyn, HBV DNA, molar ratio 1:3
[7] = individual compound, HBV infected HepaRG cells, HBV DNA, mean of n independent experiments

Nc1ccn([C@@H]2CS[C@H](CO)O2)c(=O)n1 [3TC and 3TC]
CI value at 50% HBV inhibition [1, 4]: 1.12 ± 0.24
CI value at 75% HBV inhibition [1, 4]: 1.05 ± 0.16
CI value at 90% HBV inhibition [1, 4]: 1.02 ± 0.11
CI value at 50% HBV inhibition [1, 5]: 0.98 ± 0.12
CI value at 75% HBV inhibition [1, 5]: 1.00 ± 0.14
CI value at 90% HBV inhibition [1, 5]: 1.06 ± 0.11
CI value at 50% HBV inhibition [1, 6]: 1.02 ± 0.22
CI value at 75% HBV inhibition [1, 6]: 1.03 ± 0.22
CI value at 90% HBV inhibition [1, 6]: 1.08 ± 0.21
Overall CI ([1]; CalcuSyn, molar ratio 1:0.3): 1.06 ± 0.16
Overall CI ([1]; CalcuSyn, molar ratio 1:1): 1.02 ± 0.11
Overall CI ([1]; CalcuSyn, molar ratio 1:3): 1.04 ± 0.19
Assessment of combination effect ([1]; CalcuSyn, based on overall CI values): additivity

interferon alfa-2a [Roferon]
EC50 ± SD (n) [1, 7]: 0.9 IU/mL ± 0.5 (3) and 1.8 IU/ml ± 1.7 (3) IU/mL

Nc1ccn([C@@H]2CS[C@H](CO)O2)c(=O)n1 [Compound 3TC, Lamivudine]
pEC50 [1, 7]: 7.89
% cell viability at max concentration ± SD (n) [2]: 86.4 ± 2.6 (3) % and 104.5 ± 2.6 (3) %

COC(=O)C1=C(CN2CCOC[C@H]2C(=O)O)N=C(c2nccs2)N[C@H]1c1ccc(F)cc1Cl [Compound 1, (S)-4-[(R)-6-(2-Chloro-4-fluoro-phenyl)-5-methoxycarbonyl-2-thiazol-2-yl-3,6-dihydro-pyrimidin-4-ylmethyl]-morpholine-3-carboxylic acid]
pEC50 [1, 7]: 7.67
% cell viability at max concentration ± SD (n) [2]: 96.8 ± 4.2 (3) %

COC(=O)C1=C(C)NC(c2ncc(F)cc2F)=N[C@H]1c1ccc(F)cc1Cl [Bay 41-4109]
in vivo efficacy [3]: demonstrated in vivo efficacy with HBV DNA reduction

CCOC(=O)C1=C(CN2CCN3C(=O)N(CC(C)(C)C(=O)O)C[C@@H]3C2)NC(c2nccs2)=N[C@H]1c1cccc(F)c1C [Compound 4, 3-[(8aS)-7-[[(4S)-5-ethoxycarbonyl-4-(3-fluoro-2-methyl-phenyl)-2-thiazol-2-yl-1,4-dihydropyrimidin-6-yl]methyl]-3-oxo-5,6,8,8a-tetrahydro-1H-imidazo[1,5-a]pyrazin-2-yl]-2,2-dimethyl-propanoic acid]
pEC50 [1, 7]: 8.06
% cell viability at max concentration ± SD (n) [2]: 96.1 ± 14.5 (3) %
